{"source": "patent US20040121028A1", "about": "“Plant based agents as bioavailability / bioefficacy enhancers for drugs and nutraceuticals” (COUNCIL OF SCIENTIFIC AND INDUSTRIAL RESEARCH, priority 2002, published 2004)", "assay": "Enhancement in bioavailability of drugs by the Cuminum cyminum active molecule / fraction", "key": {"[1]": {"conditions": "drug given with Active molecule (3′,5-dihydroxy flavone-7-O-β-D-galacturonide-4′-O-β-D-glucopyranoside)"}, "[2]": {"conditions": "drug given with Fraction from Cuminum cyminum"}}, "data": [{"compound": "CO/N=C(\\C(=O)N[C@@H]1C(=O)N2C(C(=O)O)=C(CSc3nc(=O)c(O)nn3C)CS[C@H]12)c1csc(N)n1", "note": "[Cefatrioxone]", "values": [{"measurement": "% Enhancement in bioavailability", "setting": "[1]", "value": 75, "unit": "%"}, {"measurement": "% Enhancement in bioavailability", "setting": "[2]", "value": 100, "unit": "%"}]}, {"compound": "C=CC[C@@H]1/C=C(\\C)C[C@H](C)C[C@H](OC)[C@H]2O[C@@](O)(C(=O)C(=O)N3CCCC[C@H]3C(=O)O[C@H](/C(C)=C/[C@@H]3CC[C@@H](O)[C@H](OC)C3)[C@H](C)[C@@H](O)CC1=O)[C@H](C)C[C@@H]2OC", "note": "[Tacrolimus]", "values": [{"measurement": "% Enhancement in bioavailability", "setting": "[1]", "value": 90, "unit": "%"}, {"measurement": "% Enhancement in bioavailability", "setting": "[2]", "value": 110, "unit": "%"}]}, {"compound": "CNC(=C[N+](=O)[O-])NCCSCc1ccc(CN(C)C)o1", "note": "[Ranitidine]", "values": [{"measurement": "% Enhancement in bioavailability", "setting": "[1]", "value": 95, "unit": "%"}, {"measurement": "% Enhancement in bioavailability", "setting": "[2]", "value": 95, "unit": "%"}]}, {"compound": "CC1=C(C(=O)O)N2C(=O)[C@@H](NC(=O)[C@H](N)c3ccc(O)cc3)[C@H]2SC1", "note": "[Cefadroxil]", "values": [{"measurement": "% Enhancement in bioavailability", "setting": "[1]", "value": 85, "unit": "%"}, {"measurement": "% Enhancement in bioavailability", "setting": "[2]", "value": 120, "unit": "%"}]}, {"compound": "COc1ccc2[nH]c([S+]([O-])Cc3ncc(C)c(OC)c3C)nc2c1", "note": "(stereo not drawn) [Omeprazole]", "values": [{"measurement": "% Enhancement in bioavailability", "setting": "[1]", "value": 72, "unit": "%"}, {"measurement": "% Enhancement in bioavailability", "setting": "[2]", "value": 87, "unit": "%"}]}, {"compound": "CC(=O)N1CCN(c2ccc(OCC3COC(Cn4ccnc4)(c4ccc(Cl)cc4Cl)O3)cc2)CC1", "note": "(stereo not drawn) [Ketoconazole]", "values": [{"measurement": "% Enhancement in bioavailability", "setting": "[1]", "value": 77, "unit": "%"}, {"measurement": "% Enhancement in bioavailability", "setting": "[2]", "value": 85, "unit": "%"}]}, {"compound": "COc1cccc2c1C(=O)c1c(O)c3c(c(O)c1C2=O)C[C@@](O)(C(=O)CO)C[C@@H]3O[C@H]1C[C@H](N)[C@H](O)[C@H](C)O1", "note": "[Doxorubicin]", "values": [{"measurement": "% Enhancement in bioavailability", "setting": "[1]", "value": 78, "unit": "%"}, {"measurement": "% Enhancement in bioavailability", "setting": "[2]", "value": 90, "unit": "%"}]}, {"compound": "Cn1c(=O)c2[nH]cnc2n(C)c1=O", "note": "[Theophylline]", "values": [{"measurement": "% Enhancement in bioavailability", "setting": "[1]", "value": 75, "unit": "%"}, {"measurement": "% Enhancement in bioavailability", "setting": "[2]", "value": 95, "unit": "%"}]}, {"compound": "O=C(CCCN1CCC(O)(c2ccc(Cl)cc2)CC1)c1ccc(F)cc1", "note": "[Haloperidol]", "values": [{"measurement": "% Enhancement in bioavailability", "setting": "[1]", "value": 72, "unit": "%"}, {"measurement": "% Enhancement in bioavailability", "setting": "[2]", "value": 60, "unit": "%"}]}, {"compound": "N[C@@H]1CON=C1O", "note": "[Cycloserine]", "values": [{"measurement": "% Enhancement in bioavailability", "setting": "[1]", "value": 85, "unit": "%"}, {"measurement": "% Enhancement in bioavailability", "setting": "[2]", "value": 110, "unit": "%"}]}, {"compound": "CCOC(=O)C1=C(COCCN)NC(C)=C(C(=O)OC)C1c1ccccc1Cl", "note": "(stereo not drawn) [Amlodipine]", "values": [{"measurement": "% Enhancement in bioavailability", "setting": "[1]", "value": 80, "unit": "%"}, {"measurement": "% Enhancement in bioavailability", "setting": "[2]", "value": 130, "unit": "%"}]}, {"compound": "CS(=O)(=O)Nc1ccc([N+](=O)[O-])cc1Oc1ccccc1", "note": "[Nimesulide]", "values": [{"measurement": "% Enhancement in bioavailability", "setting": "[1]", "value": 90, "unit": "%"}, {"measurement": "% Enhancement in bioavailability", "setting": "[2]", "value": 115, "unit": "%"}]}, {"compound": "CC(C)(C)NCC(O)c1ccc(O)c(CO)c1", "note": "(stereo not drawn) [Salbutamol]", "values": [{"measurement": "% Enhancement in bioavailability", "setting": "[1]", "value": 98, "unit": "%"}, {"measurement": "% Enhancement in bioavailability", "setting": "[2]", "value": 75, "unit": "%"}]}, {"compound": "Nc1ccc(S(=O)(=O)c2ccc(N)cc2)cc1", "note": "[Dapsone]", "values": [{"measurement": "% Enhancement in bioavailability", "setting": "[1]", "value": 67, "unit": "%"}, {"measurement": "% Enhancement in bioavailability", "setting": "[2]", "value": 93, "unit": "%"}]}, {"compound": "Cc1cn([C@H]2C[C@H](N=[N+]=[N-])[C@@H](CO)O2)c(=O)[nH]c1=O", "note": "[Zidovudine]", "values": [{"measurement": "% Enhancement in bioavailability", "setting": "[1]", "value": 120, "unit": "%"}, {"measurement": "% Enhancement in bioavailability", "setting": "[2]", "value": 135, "unit": "%"}]}, {"compound": "O=c1[nH]cc(F)c(=O)[nH]1", "note": "[5-Fluorouracil]", "values": [{"measurement": "% Enhancement in bioavailability", "setting": "[1]", "value": 110, "unit": "%"}, {"measurement": "% Enhancement in bioavailability", "setting": "[2]", "value": 240, "unit": "%"}]}, {"compound": "CC1(C)S[C@@H]2[C@H](NC(=O)[C@H](N)c3ccc(O)cc3)C(=O)N2[C@H]1C(=O)O", "note": "[Amoxycillin]", "values": [{"measurement": "% Enhancement in bioavailability", "setting": "[1]", "value": 68, "unit": "%"}, {"measurement": "% Enhancement in bioavailability", "setting": "[2]", "value": 105, "unit": "%"}]}, {"compound": "CC(C)NCC(O)COc1cccc2ccccc12", "note": "(stereo not drawn) [Propranolol]", "values": [{"measurement": "% Enhancement in bioavailability", "setting": "[1]", "value": 85, "unit": "%"}, {"measurement": "% Enhancement in bioavailability", "setting": "[2]", "value": 140, "unit": "%"}]}, {"compound": "CN(Cc1cnc2nc(N)nc(N)c2n1)c1ccc(C(=O)N[C@@H](CCC(=O)O)C(=O)O)cc1", "note": "[Methotrexate]", "values": [{"measurement": "% Enhancement in bioavailability", "setting": "[1]", "value": 95, "unit": "%"}, {"measurement": "% Enhancement in bioavailability", "setting": "[2]", "value": 140, "unit": "%"}]}, {"compound": "Nc1nc2c(ncn2COCCO)c(=O)[nH]1", "note": "[Acyclovir]", "values": [{"measurement": "% Enhancement in bioavailability", "setting": "[1]", "value": 89, "unit": "%"}, {"measurement": "% Enhancement in bioavailability", "setting": "[2]", "value": 110, "unit": "%"}]}, {"compound": "CCc1cc(C(N)=S)ccn1", "note": "[Ethionamide]", "values": [{"measurement": "% Enhancement in bioavailability", "setting": "[1]", "value": 120, "unit": "%"}, {"measurement": "% Enhancement in bioavailability", "setting": "[2]", "value": 110, "unit": "%"}]}, {"compound": "CN1C(C(=O)Nc2ccccn2)=C(O)c2ccccc2S1(=O)=O", "note": "[Piroxicam]", "values": [{"measurement": "% Enhancement in bioavailability", "setting": "[1]", "value": 76, "unit": "%"}, {"measurement": "% Enhancement in bioavailability", "setting": "[2]", "value": 100, "unit": "%"}]}, {"compound": "CN(Cc1cc(Br)cc(Br)c1N)C1CCCCC1", "note": "[Bromhexine]", "values": [{"measurement": "% Enhancement in bioavailability", "setting": "[2]", "value": 35, "unit": "%"}]}, {"compound": "Cc1nnc2n1-c1ccc(Cl)cc1C(c1ccccc1)=NC2", "note": "[Alprazolam]", "values": [{"measurement": "% Enhancement in bioavailability", "setting": "[1]", "value": 70, "unit": "%"}, {"measurement": "% Enhancement in bioavailability", "setting": "[2]", "value": 75, "unit": "%"}]}, {"compound": "NCC[C@H](O)C(=O)N[C@@H]1C[C@H](N)[C@@H](O[C@H]2O[C@H](CN)[C@@H](O)[C@H](O)[C@H]2O)[C@H](O)[C@H]1O[C@H]1O[C@H](CO)[C@@H](O)[C@H](N)[C@H]1O", "note": "[Amikacin]", "values": [{"measurement": "% Enhancement in bioavailability", "setting": "[1]", "value": 76, "unit": "%"}, {"measurement": "% Enhancement in bioavailability", "setting": "[2]", "value": 87, "unit": "%"}]}, {"compound": "CO[C@H]1/C=C/O[C@@]2(C)Oc3c(C)c(O)c4c(O)c(c(/C=N/N5CCN(C)CC5)c(O)c4c3C2=O)NC(=O)/C(C)=C\\C=C\\[C@H](C)[C@H](O)[C@@H](C)[C@@H](O)[C@@H](C)[C@H](OC(C)=O)[C@@H]1C", "note": "[Rifampicin]", "values": [{"measurement": "% Enhancement in bioavailability", "setting": "[1]", "value": 90, "unit": "%"}, {"measurement": "% Enhancement in bioavailability", "setting": "[2]", "value": 170, "unit": "%"}]}, {"compound": "CCn1cc(C(=O)O)c(=O)c2cc(F)c(N3CCNCC3)cc21", "note": "[Norfloxacin]", "values": [{"measurement": "% Enhancement in bioavailability", "setting": "[1]", "value": 45, "unit": "%"}, {"measurement": "% Enhancement in bioavailability", "setting": "[2]", "value": 55, "unit": "%"}]}, {"compound": "O=C(O)Cc1ccccc1Nc1c(Cl)cccc1Cl", "note": "[Diclofenac]", "values": [{"measurement": "% Enhancement in bioavailability", "setting": "[1]", "value": 105, "unit": "%"}, {"measurement": "% Enhancement in bioavailability", "setting": "[2]", "value": 125, "unit": "%"}]}, {"compound": "NNC(=O)c1ccncc1", "note": "[Isoniazid]", "values": [{"measurement": "% Enhancement in bioavailability", "setting": "[2]", "value": 30, "unit": "%"}]}, {"compound": "CC[C@H]1OC(=O)[C@H](C)[C@@H](O[C@H]2C[C@@](C)(OC)[C@@H](O)[C@H](C)O2)[C@H](C)[C@@H](O[C@@H]2O[C@H](C)C[C@H](N(C)C)[C@H]2O)[C@](C)(O)C[C@@H](C)C(=O)[C@H](C)[C@@H](O)[C@]1(C)O", "note": "[Erythromycin]", "values": [{"measurement": "% Enhancement in bioavailability", "setting": "[1]", "value": 70, "unit": "%"}, {"measurement": "% Enhancement in bioavailability", "setting": "[2]", "value": 80, "unit": "%"}]}, {"compound": "CC[C@H]1OC(=O)[C@H](C)[C@@H](O[C@H]2C[C@@](C)(OC)[C@@H](O)[C@H](C)O2)[C@H](C)[C@@H](O[C@@H]2O[C@H](C)C[C@H](N(C)C)[C@H]2O)[C@](C)(O)C[C@@H](C)CN(C)[C@H](C)[C@@H](O)[C@]1(C)O", "note": "[Azithromycin]", "values": [{"measurement": "% Enhancement in bioavailability", "setting": "[1]", "value": 82, "unit": "%"}, {"measurement": "% Enhancement in bioavailability", "setting": "[2]", "value": 115, "unit": "%"}]}, {"compound": "CS(=O)(=O)c1ccc(C2=C(c3ccccc3)C(=O)OC2)cc1", "note": "[Rofecoxib]", "values": [{"measurement": "% Enhancement in bioavailability", "setting": "[1]", "value": 43, "unit": "%"}, {"measurement": "% Enhancement in bioavailability", "setting": "[2]", "value": 70, "unit": "%"}]}, {"compound": "C[C@@H]1[C@H](O)[C@@H](C)/C=C/C=C/C=C/C=C/C=C/C=C/C=C/[C@H](O[C@@H]2O[C@H](C)[C@@H](O)[C@H](N)[C@@H]2O)C[C@@H]2O[C@](O)(C[C@@H](O)C[C@@H](O)[C@H](O)CC[C@@H](O)C[C@@H](O)CC(=O)O[C@H]1C)C[C@H](O)[C@H]2C(=O)O", "note": "[Amphotericin B]", "values": [{"measurement": "% Enhancement in bioavailability", "setting": "[1]", "value": 95, "unit": "%"}, {"measurement": "% Enhancement in bioavailability", "setting": "[2]", "value": 90, "unit": "%"}]}, {"compound": "CN/C(=N/CCSCc1nc[nH]c1C)NC#N", "note": "[Cimetidine]", "values": [{"measurement": "% Enhancement in bioavailability", "setting": "[1]", "value": 76, "unit": "%"}, {"measurement": "% Enhancement in bioavailability", "setting": "[2]", "value": 70, "unit": "%"}]}]}
